Here are results for 15 molecules from patent US6589941B1 (priority 1995, dated 2003).

Series [1] relates to Saccharomyces cerevisiae MP1. Description: Recombination / mutation experiments with yeast. Type of series: cell-based. As to conditions: for anti-recombinogenic effects in Saccharomyces cerevisiae MP1: FIGS. 11 and 12.
Series [2] has as its system SV40-DNA amplification in SV40 transformed embryonic CO631 hamster cells. Description: SV40-DNA gene amplification system in SV40-transformed hamster cells. Type of series: cell-based, Chinese Hamster. As to conditions: for effect on SV40 gene amplification: model substance given alone, FIGS. 1 to 3. The text has this: To investigate the amplification phenomena, a hamster cell strain is used which contains a virus (simian virus 40) integrated in the genome. It is known for this cell strain that an addition of genotoxic substances, but also various “non-genotoxic” carcinogens and tumor inducers, leads to amplification of SV40-DNA in the hamster genome. The method is based on the fact that marked SV40-DNA with hamster cell-DNA containing SV40-DNA in an amplified number, serving as a probe, is hybridized. The quantity of bound probe gives an insight into the degree of amplification of the integrated virus-DNA.
In order to determine the degree of amplification, the albumin-gene-DNA is measured simultaneously with the SV40-DNA. The albumin-gene, as opposed to SV40-DNA, is not amplified in the cell. Accordingly the value of the relative SV40-DNA content results from the quotient of the signal of the DNA probe hybridized with SV40-DNA to the signal of the DNA probe hybridized with albumin gene from the same SV40 transformed embryonic CO631 hamster cells.
The effect of the above named model substances alone or in combination with a carcinogen is tested in the gene amplification system.

The test system of series [3] is tumor cell strain F46-WT of the mouse. On the procedure:
The formation of resistance is based on the amplification of the MDR gene. This is indicated with the aid of the Northern Blotting Technique, a method for indicating RNA molecules, i.e., the transcription of a gene, using the MDR gene as a probe (FIG. 10).
The tumor cell strain F4-6-WT of the mouse (WT=wild type=sensitive to cytostatic treatment=no amplification of the MDR gene) is treated over several weeks with staged increases in concentration of adriamycin. […] The formation of resistance is based on the amplification of the MDR gene. This is indicated with the aid of the Northern Technique, a method for indicating RNA molecules, i.e., the transcription of a gene, using the MDR gene as a probe (FIG. 15). […] The levels of β-actin MRNA are likewise analyzed as comparison. β-actin is used as an internal control for the RNA quantity.
In parallel experiments, adriamycin is administered with 1 μg/ml of a respective 5′ substituted nucleoside.

The test system of a further series is MDR gene in F46-WT cells. Description: Northern Blot analysis of RNA with the MDR gene as probe. The class given is cell-based, mouse. As to conditions: BVDU+adriamycin treatment, FIG. 10. The text has this:
Expression of the MDR genes in the tumor cell strain F4-6WT of the mouse.

Series [4] has as its system human tumor cell strain K562-WT. As to conditions: FIG. 8.

In the case of `Nc1nc(=O)n([C@H]2C[C@H](O)[C@@H](CO)O2)cc1I` [5-iodo-2′-deoxycytidine], the “anti-recombinogenic effects in Saccharomyces cerevisiae MP1” value in series [1] was “anti-recombinogenic effects”. As for `O=c1[nH]c(=O)n([C@H]2C[C@H](O)[C@@H](CO)O2)cc1I` [5-iodo-2′-deoxyuridine], the “anti-recombinogenic effects in Saccharomyces cerevisiae MP1” value in series [1] is on record as “anti-recombinogenic effects”. With `O=c1[nH]c(=O)n([C@H]2C[C@H](O)[C@@H](CO)S2)cc1/C=C/Br` [(E)-5(2-bromovinyl-2′-deoxy-4′-thiouridine], the “anti-recombinogenic effects in Saccharomyces cerevisiae MP1” value in series [1] is recorded as “anti-recombinogenic effects”. As for `O=c1[nH]c(=O)n([C@@H]2O[C@H](CO)[C@@H](O)[C@@H]2O)cc1/C=C/Br` [(E)-5-(2-bromovinyl)-1-β-D-arabinofuranosyl-uracil], the “anti-recombinogenic effects in Saccharomyces cerevisiae MP1” value in series [1] was “anti-recombinogenic effects”.

Consider `O=c1[nH]c(=O)n([C@H]2C[C@H](O)[C@@H](CO)O2)cc1/C=C/Br` [BVDU, (E)-5-(2-bromovinyl-)2′-deoxyuridine], for which the “effect on spontaneous degree of amplification” value in series [2] (BVDU alone, repeat experiment, FIG. 6) is reported as “slightly to lessen the spontaneous degree of amplification”. Also, in series [2] (with S9-mix, lower dose range than without S9-mix, FIG. 7), the “effect on AMP-induced gene amplification” value is reported as “lowering of AMP-induced gene amplification”. Further, in series [2] (without S9-mix, FIG. 5), the “concentration at which inhibition of AMP-induced gene amplification starts” value is recorded as “about 0.05 μg/ml”. For the same molecule, the “concentration leading to total inhibition of the AMP-induced gene amplification” value in series [2] (without S9-mix, dose dependent, FIG. 5) came to 5 µg/mL. Also, the “anti-recombinogenic effects in Saccharomyces cerevisiae MP1” value in series [1] is reported as “anti-recombinogenic effects”. Also, in series [1] (with and without S9-mix, FIG. 4), the “effect on mutation in yeast” value was “co-mutagenic”. In series [1] (with and without liver microsomes (S9-mix), more visible and at lower concentration with S9-mix, FIG. 4), the “effect on recombination in yeast” value is on record as “anti-recombinogenic”. Besides, the “formation of resistance to adriamycin” value in series [3] (0.5 or 1 μg/ml BVDU given together with adriamycin, F46-WT, 6 to 8 weeks, FIG. 9) is reported as “prevents the formation of resistance to adriamycin”; in series [4] (0.5 or 1 μg/ml BVDU given together with adriamycin, K562-WT, 6 to 8 weeks), “prevents the formation of resistance to adriamycin”. Besides, the “concentration from which BVDU acts in a toxic manner” value in series [3] (mouse cells, FIG. 9) was “about 8 μg/ml”; in series [4] (human tumor cells), “about 10 μg/ml”. The “amplification of the MDR gene compared with adriamycin treatment alone” value in the series on MDR gene in F46-WT cells is reported as “considerably weaker amplification of the MDR gene”. For the molecule `C1CN1c1nc(N2CC2)nc(N2CC2)n1` [TEM, Triethylenmelamin], the “effect on SV40 gene amplification” value in series [2] is recorded as “increase the SV40 gene amplification”.

In the case of `CCCCCCCCCCCCCC(=O)O[C@@H]1[C@@H](C)[C@@]2(O)[C@@H](C=C(CO)C[C@]3(O)C(=O)C(C)=C[C@@H]23)[C@H]2C(C)(C)[C@]12OC(C)=O` [TPA, 12-0-tetradecanoyl-phorbol-13-acetate], the “effect on SV40 gene amplification” value in series [2] is listed as “increase the SV40 gene amplification”. Still for that read-out and setting: under `CC(N)=O` [acetamide] stands “increase the SV40 gene amplification”; under `CC(C)=O` [acetone], “no effect”. For `COc1cccc2c1C(=O)c1c(O)c3c(c(O)c1C2=O)C[C@@](O)(C(=O)CO)C[C@@H]3O[C@H]1C[C@H](N)[C@H](O)[C@H](C)O1` [adriamycin], the “sensitivity of cells after long term treatment with staged increase in concentration” value is recorded as “totally insensitive” in series [3] (20 ng/ml adriamycin, F46-WT, FIGS. 9, 13, 14) and “totally insensitive” in series [4] (20 ng/ml adriamycin, K562-WT). In addition, the “toxic effect on non-resistant cells” value in series [4] (20 ng/ml adriamycin, treatment time 4 days, K562-WT) is recorded as “severely toxic effect”. Turning to `O=c1ccc2ccccc2o1` [coumarin], in series [2], the “effect on SV40 gene amplification” value was “increase the SV40 gene amplification”.

With `CN(C)C=O` [dimethylfornamide, dimethylformamide], the “effect on SV40 gene amplification” value in series [2] is reported as “no effect”. As to `C=C(C)[C@@]12O[C@@]3(c4ccccc4)O[C@@H]1[C@@H]1[C@@H]4O[C@]4(CO)[C@@H](O)[C@]4(O)C(=O)C(C)=C[C@H]4[C@@]1(O3)[C@H](C)[C@H]2OC(=O)/C=C/C=C/c1ccccc1` [mezerein], the “effect on SV40 gene amplification” value in series [2] is “increase the SV40 gene amplification”. Regarding `C[C@]12CC[C@H]3[C@@H](CCC4=CC(=O)CC[C@@]43C)[C@@H]1CC[C@@H]2O` [testosterone], in series [2] (with S9-mix, FIG. 3), the “effect on the amplifying effect of methotrexate (MTX)” value is recorded as “reduces the amplifying effect of methotrexate (MTX)”. Also, in series [2] (without S9-mix, FIG. 3), the “effect on the amplifying effect of amino-6-mercaptopurine (AMP)” value is “increases the amplifying effect of amino-6-mercaptopurine (AMP)”. Take `CC(=N)S` [thioacetamide]: in series [2], the “effect on SV40 gene amplification” value was “increase the SV40 gene amplification”.
